The results in this text go back to paper PMC11111408, “Concurrent inhibition of oncogenic and wild-type RAS-GTP for cancer therapy” (Nature, 2024).

Molecules are shown by their SMILES. Values joined by “and” are separate entries in the source; they are usually repeats but may differ in a detail not shown here. Identical values can stand only once.

Broadly, the EC50 is the concentration that produces a half-maximal response.

Data set [1] addresses T1, MRAS and other RAS family small GTPase proteins (Homo sapiens, UniProt Q92963).
T1 construct: expressed in transfected cells; host or cells: U2OS PPIA-KO
The experiment in a line: Cellular BRET between CYPA and small GTPases (RIT1, MRAS, RRAS, RRAS2, Rheb). The data set is classed as cell-based. The settings on record: RIT1; RMC-7977 1111.111 nM; single replicates. (In BRET a luciferase serves as donor, and the signal depends on an acceptor being close.)

The target in data set [2] is T2, MRAS and other RAS family small GTPase proteins (Homo sapiens, UniProt O14807, Q71R).
T2 construct: expressed in transfected cells; host or cells: U2OS PPIA-KO
T2 sequence (O14807 1-208 Q71R): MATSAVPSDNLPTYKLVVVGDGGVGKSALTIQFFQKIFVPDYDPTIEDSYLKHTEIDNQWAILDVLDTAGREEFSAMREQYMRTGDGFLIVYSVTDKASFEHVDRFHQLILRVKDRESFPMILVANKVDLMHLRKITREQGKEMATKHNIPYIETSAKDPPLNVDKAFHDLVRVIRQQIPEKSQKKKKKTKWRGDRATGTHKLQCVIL
The data set is described as above. Particulars: MRAS Q71R, single replicates. The data set is classed as cell-based.

Data set [3] has as its target T3, MRAS and other RAS family small GTPase proteins (Homo sapiens, UniProt P10301, G38V).
T3 construct: expressed in transfected cells; host or cells: U2OS PPIA-KO
T3 sequence (P10301 1-218 G38V): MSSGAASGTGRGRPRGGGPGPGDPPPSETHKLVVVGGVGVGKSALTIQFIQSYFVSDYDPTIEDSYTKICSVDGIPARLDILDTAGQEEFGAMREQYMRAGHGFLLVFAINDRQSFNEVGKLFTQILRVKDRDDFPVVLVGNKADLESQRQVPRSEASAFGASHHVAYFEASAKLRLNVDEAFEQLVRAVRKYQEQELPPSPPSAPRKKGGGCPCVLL
The data set is described as above. Particulars: RRAS G38V, single replicates. The format is cell-based.

In data set [4] the target is T4, KRAS^G13D (Homo sapiens, UniProt P01116+P62937, G13D). The data set can be described thus: Cellular RAS–CYPA binding (tri-complex formation), nano-BRET in U2OS cells. The data set is classed as cell-based. The settings on record: (95% CI). The source says: (§1) KRAS4B, or other small GTPases, containing the indicated mutations were cloned in pNLF-N or pHTN plasmids for expression with an N-terminal nanoluciferase or HaloTag fusion, respectively. […] The following day, the cells were collected by Trypsin and reseeded in a white tissue culture-treated 96-well plate in OptiMem phenol red-free medium (Gibco) containing 4% FBS and a 1:1,000 dilution of NanoBRET 618 HaloTag ligand (Promega). For endpoint concentration response curves, vivazine nanoluciferase substrate was added to 1× concentration in OptiMem phenol red-free medium with 4% FBS. Varying concentrations of inhibitor were added and incubated for 1 or 4 h before the nano-BRET signal was measured on a Perkin Elmer Envision plate reader. For kinetic assays, endurazine nanoluciferase substrate was used in place of vivazine, and the plate was placed in a Cytation5 multi-mode reader pre-equilibrated to 37 °C and 5% CO2.

The target in data set [5] is T4, KRAS^G13D. The experiment in a line: Cellular RAS–RAF (CRAF RBD) disruption, nano-BRET in U2OS cells. The data set is classed as cell-based. The settings on record: (95% CI).
Excerpt: as §1

Data set [6] in a line: Cell-to-medium concentration ratio of RMC-7977 (LC–MS/MS bioanalysis of cells and supernatant). The data set is classed as in vitro ADME, human. Here is the method: Cells were pelleted by centrifugation, and 1 ml of supernatant was reserved and frozen at −80 °C. Cell pellets were washed twice in cold PBS, and pre-weighed tubes containing the cell pellets were weighed prior to snap freezing in a slurry of dry ice and ethanol. […] Cell pellet samples were resuspended in cell medium (diluted as needed), then treated as supernatant. An aliquot of supernatant or resuspended cells (50 µL) was quenched with a 3× volume of acetonitrile containing the internal standard terfenadine (2.5 ng ml^−1). […] The lower limit of quantification was 0.25 ng ml^−1, and the calibration range was 0.25 to 400 ng ml^−1.

Data set [7] concerns KRAS(G12C)-mutated PDX model from a NSCLC patient relapsed on sotorasib. The experiment in a line: Sotorasib resistance xenograft study (KRAS^G12C NSCLC PDX). The data set is classed as in vivo, mouse. Particulars: 10 mg kg^−1 daily oral, day 17 of treatment.
Data set [8] has as its system NCI-H358 cells (CYPA-high, CYPA-low). The data set can be described thus: pERK (MSD) in NCI-H358 cells with low or high CYPA. Particulars: NCI-H358, doxycycline-inducible CYPA.
Excerpt: NCI-H358 cells were transduced by lentivirus encoding Cas9, a guide RNA targeting PPIA (which encodes CYPA), and the puromycin resistance gene at WarpDrive Bio. Following puromycin selection, Flag–CYPA was introduced under the control of a tet-inducible promoter by lentivirus. Clones with high and low expression levels of Flag–CYPA were isolated at Revolution Medicines.

`CCn1c(-c2cc(N3CCN(C4CC4)CC3)cnc2[C@H](C)OC)c2c3cc(ccc31)-c1csc(n1)C[C@H](NC(=O)[C@H]1[C@@H]3COC[C@@H]31)C(=O)N1CCC[C@H](N1)C(=O)OCC(C)(C)C2` [RMC-7977]: the “Cellular milliBRET signal between CYPA and small GTPase protein” value in data set [1] was 5.773 milliBRET and 8.825 milliBRET and 5.603 milliBRET and 8.649 milliBRET and 4.274 milliBRET and 8.593 milliBRET; in data set [2] (RMC-7977 1.524 nM) it was 0.1742 milliBRET and -0.02549 milliBRET and -0.02476 milliBRET and 0.1125 milliBRET and -0.009573 milliBRET and 0.6001 milliBRET; in data set [2] (RMC-7977 4.572 nM), 0.2187 milliBRET and 0.4442 milliBRET and 0.7681 milliBRET and 0.6759 milliBRET and 0.0576 milliBRET and 0.4387 milliBRET; in data set [2] (RMC-7977 13.717 nM) it was 1.192 milliBRET and 1.33 milliBRET and 1.81 milliBRET and 1.499 milliBRET and 1.997 milliBRET and 1.461 milliBRET; in data set [2] (RMC-7977 41.152 nM), 3.258 milliBRET and 4.102 milliBRET and 3.883 milliBRET and 4.836 milliBRET and 4.487 milliBRET and 5.493 milliBRET; in data set [2] (RMC-7977 123.457 nM) it was 7.175 milliBRET and 7.5859 milliBRET and 7.924 milliBRET and 8.745 milliBRET and 8.3065 milliBRET and 8.689 milliBRET. In addition, the “Cellular milliBRET signal between CYPA and small GTPase protein” value in data set [2] (RMC-7977 370.370 nM) is 10.161 milliBRET and 10.397 milliBRET and 10.5343 milliBRET and 10.3086 milliBRET and 10.5443 milliBRET and 10.7709 milliBRET; in data set [2] (RMC-7977 1111.111 nM) it was 10.7121 milliBRET and 10.5516 milliBRET and 12.3365 milliBRET and 10.0544 milliBRET and 11.7366 milliBRET and 10.787 milliBRET; in data set [3] (RMC-7977 1.524 nM), 0.03915 milliBRET and 0.5182 milliBRET and 0.5529 milliBRET and 0.4086 milliBRET and -0.3288 milliBRET and -0.1046 milliBRET; in data set [3] (RMC-7977 4.572 nM) it was 0.5753 milliBRET and 0.4746 milliBRET and 0.4726 milliBRET and 0.8392 milliBRET and 0.3184 milliBRET and -0.4343 milliBRET; in data set [3] (RMC-7977 13.717 nM) it was 1.433 milliBRET and 1.375 milliBRET and 1.967 milliBRET and 1.168 milliBRET and -0.05818 milliBRET and -0.1444 milliBRET; in data set [3] (RMC-7977 41.152 nM) it was 2.179 milliBRET and 2.7799 milliBRET and 3.446 milliBRET and 3.438 milliBRET and 1.092 milliBRET and 1.757 milliBRET. Also, the “Cellular milliBRET signal between CYPA and small GTPase protein” value in data set [3] (RMC-7977 123.457 nM) is 6.2456 milliBRET and 5.867 milliBRET and 7.851 milliBRET and 6.806 milliBRET and 4.695 milliBRET and 3.825 milliBRET; in data set [3] (RMC-7977 370.370 nM), 10.4854 milliBRET and 10.0017 milliBRET and 10.9416 milliBRET and 10.5658 milliBRET and 8.5015 milliBRET and 8.57 milliBRET; in data set [3] (RMC-7977 1111.111 nM), 11.032 milliBRET and 12.1599 milliBRET and 11.6879 milliBRET and 11.9893 milliBRET and 10.1243 milliBRET and 10.2861 milliBRET. For the same molecule, the EC50 at KRAS^G13D [4] came out at 4.99 nM; on KRAS^G13D [5], 15.4 nM. The “LC/MS bioanalysis of cells treated with RMC-7977” value in data set [6] (AsPC-1, RMC-7977 10 nM) is 161.5 and 241.3 and 143.0; in data set [6] (AsPC-1, RMC-7977 100 nM) it was 76.8 and 68.8 and 89.6; in data set [6] (AsPC-1, RMC-7977 1000 nM), 50.6 and 44.9. Further, the “inhibition of tumour growth” value in data set [7] is on record as 90%. Moreover, the “sensitivity of CYPA-high versus CYPA-low cells, inhibition of signalling (pERK)” value in data set [8] is recorded as “threefold”.
